In patent publication US12564638B2 (SHANGHAITECH UNIVERSITY, priority 2019, dated 2026):
Like-named read-outs stand apart in the source and are kept apart here.

What was measured:
Assay type in all cases: cell-based
[1] = test system: HCC827 cells (EGFR Exon19 del, non-small cell lung cancer cells); assay: Cell viability assay (WST/CCK8), HCC827 cells; conditions: Homo sapiens, HCC827, 72 h, HCC827 (Exon19 Del), 72 hours, read-out: IC50 (half inhibitory concentration)
How it was run: (§1)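 Cells seeded at 3 000/well in RPMI1640 complete medium, dosed next day with compounds (top 10 μM, 3-fold, 10 points) for 72 h. Viability read with WST (CCK8) reagent; DMSO as negative control, EGFR TKIs as positive controls; IC50 determined.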

[2] = test system: PC9 cells (EGFR Exon 19 del, non-small cell lung cancer cells); assay: Cell viability assay (WST/CCK8), PC9 cells; conditions: Homo sapiens, PC-9, PC9 (Exon19 Del), 72 hours, read-out: IC50 (half inhibitory concentration)
How it was run: as §1

[3] = test system: H1975 (EGFR T790M+L858R mutation, non-small cell lung cancer cell line); assay: Cell viability assay (WST/CCK8), H1975 cells; conditions: Homo sapiens, NCI-H1975, H1975 (L858R + T790M), read-out: IC50 (half inhibitory concentration)
Excerpt: (§2) The cell lines with abnormal EGFR expression used are as follows: • HCC827 cells (EGFR Exon19 del, non-small cell lung cancer cells); • PC9 cells (EGFR Exon 19 del, non-small cell lung cancer cells); • PC9BracA1 (EGFR Exon 19 del+T790M, non-small cell lung cancer cells) • H1975 (EGFR Exon T790M+L858R mutation, non-small cell lung cancer cell line) • BT474 cells (HER2 positive breast cancer cells)
(§3) All of the half inhibitory concentrations (IC50) of these compounds of the present invention were determined with WST reagent from Fuyuan Biotec Company. The specific experiment procedures are as follows: Cancer cells were planted in 96-well-plate at the density of 3 000 cells per well with 100 μL RPMI1640 completed culture medium. In the next day, compounds with indicated concentrations were added to the cells, DMSO was used as the negative control and the EGFR TKIs were used to treat cells as the positive groups. After 72 hours drug treatment, cell viability was measured by using the WST reagent following the instructions.

[4] = test system: PC9BracA1 (EGFR Exon 19 del+T790M, non-small cell lung cancer cells); assay: Cell viability assay (WST/CCK8), PC9Brac1 cells; conditions: read-out: IC50 (half inhibitory concentration)
Excerpt: as §2, §3

[5] = test system: BT474 cells (HER2 positive breast cancer cells); assay: Cell viability assay (CCK8), BT474 cells; conditions: Homo sapiens, BT-474, Table 10, BT474, 72 hours, read-out: IC50 (half inhibitory concentration)
How it was run: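 HER2-overexpressing BT474 cells in RPMI1640 were exposed to compounds for 72 hours over 10 concentrations (3-fold dilution, top 10 μM). Viability was measured with CCK8 reagent against a DMSO control, and IC50 was taken from growth inhibition curves.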

[6] = PC9Brac1 (Ex19del + T790M), 72 hours, WST
[7] = Table 6, canertinib-based compounds, WST
[8] = Table 7, canertinib-based compounds
[9] = Table 7, canertinib-based compounds, PC9Brca1 (Ex19del + T790M)

Compound	IC50 ([1]; WST (CCK8)) [nM]	IC50 ([2]; WST (CCK8)) [nM]	IC50 ([3]; 72 hours, WST) [nM]	IC50 [4, 6] [nM]	IC50 [5] [nM]	IC50 [1, 7] [nM]	IC50 [2, 7] [nM]	IC50 [3, 8] [nM]	IC50 [4, 9] [nM]
COc1cc2ncnc(Nc3ccc(F)c(Cl)c3)c2cc1NC(=O)/C=C/CN1CCC(N2CCN(C(=O)CNc3cccc4c3C(=O)N(C3CCC(=O)NC3=O)C4=O)CC2)CC1 (centres unmarked) [SIAIS262036, (E)-N-(4-((3-chloro-4-fluorophenyl)amino)-7-methoxyquinazolin-6-yl)-4-(4-(4-(2-((2-(2,6-dioxopiperidin-3-yl)-1,3-dioxoisoindolin-4-yl)amino)acetyl)piperazin-1-yl)piperidin-1-yl)but-2-enamide]	2.4	6.7	511	260	0.3	–	–	–	–
C=CC(=O)Nc1cc2c(Nc3ccc(F)c(Cl)c3)ncnc2cc1OCCCN1CCC(N2CCN(C(=O)CCCCCSc3cccc4c3CN(C3CCC(=O)NC3=O)C4=O)CC2)CC1 (centres unmarked) [SIAIS262176, N-(4-((3-chloro-4-fluorophenyl)amino)-7-(3-(4-(4-(6-((2-(2,6-dioxopiperidin-3-yl)-1-oxoisoindolin-4-yl)thio)hexanoyl)piperazin-1-yl)piperidin-1-yl)propoxy)quinazolin-6-yl)acrylamide]	–	–	–	–	1.4	3.3	15.8	67	472
C=CC(=O)Nc1cc2c(Nc3ccc(F)c(Cl)c3)ncnc2cc1OCCCN1CCN(CCCCC#CC2c3ccccc3C(=O)N2C2CCC(=O)NC2=O)CC1 (centres unmarked) [SIAIS262131, N-(4-((3-chloro-4-fluorophenyl)amino)-7-(3-(4-(6-(2-(2,6-dioxopiperidin-3-yl)-3-oxoisoindolin-1-yl)hex-5-yn-1-yl)piperazin-1-yl)propoxy)quinazolin-6-yl)acrylamide]	–	–	–	–	5.1	1.2	29.3	45	216
C=CC(=O)Nc1cc2c(Nc3ccc(F)c(Cl)c3)ncnc2cc1OCCCN1CCC(N2CCN(C(=O)CNc3cccc4c3C(=O)N(C3CCC(=O)NC3=O)C4=O)CC2)CC1 (centres unmarked) [SIAIS262177, N-(4-((3-chloro-4-fluorophenyl)amino)-7-(3-(4-(4-(2-((2-(2,6-dioxopiperidin-3-yl)-1,3-dioxoisoindolin-4-yl)amino)acetyl)piperazin-1-yl)piperidin-1-yl)propoxy)quinazolin-6-yl)acrylamide]	–	–	–	–	8.2	5.7	3.4	654	209
COc1cc2ncnc(Nc3ccc(F)c(Cl)c3)c2cc1NC(=O)/C=C/CN1CCC(NC(=O)CCCCCCCCCCSc2cccc3c2CN(C2CCC(=O)NC2=O)C3=O)CC1 (centres unmarked) [SIAIS262118, (E)-N-(1-(4-((4-((3-chloro-4-fluorophenyl)amino)-7-methoxyquinazolin-6-yl)amino)-4-oxobut-2-en-1-yl)piperidin-4-yl)-11-((2-(2,6-dioxopiperidin-3-yl)-1-oxoisoindolin-4-yl)thio)undecanamide]	3	3.8	299	205	63.2	–	–	–	–
C=CC(=O)Nc1cc2c(Nc3ccc(F)c(Cl)c3)ncnc2cc1OCCCN1CCC(N2CCN(C(=O)CCCCCCNc3cccc4c3C(=O)N(C3CCC(=O)NC3=O)C4=O)CC2)CC1 (centres unmarked) [SIAIS262179, N-(4-((3-chloro-4-fluorophenyl)amino)-7-(3-(4-(4-(7-((2-(2,6-dioxopiperidin-3-yl)-1,3-dioxoisoindolin-4-yl)amino)heptanoyl)piperazin-1-yl)piperidin-1-yl)propoxy)quinazolin-6-yl)acrylamide]	–	–	–	–	14.6	2.5	10.3	43	181
C=CC(=O)Nc1cc2c(Nc3ccc(F)c(Cl)c3)ncnc2cc1OCCCN1CCN(C(=O)CCCCCSc2cccc3c2CN(C2CCC(=O)NC2=O)C3=O)CC1 (centres unmarked) [SIAIS262123, N-(4-((3-chloro-4-fluorophenyl)amino)-7-(3-(4-(6-((2-(2,6-dioxopiperidin-3-yl)-1-oxoisoindolin-4-yl)thio)hexanoyl)piperazin-1-yl)propoxy)quinazolin-6-yl)acrylamide]	–	–	–	–	48.9	2	8.3	143	380
